In patent publication US20190125669A1, “SYSTEMS AND METHODS FOR STEROIDAL GELS” (Children's Medical Center Corporation, priority 2016, published 2019):
“Also recorded” adds a separate entry of the source. Where a name gives a salt, the structure may show the parent alone.

Experiments:
[1] = Gelation of steroid drugs and alkaline-earth metal ion; assay type: physicochemical; design: key: L indicates that a liquid was formed; P indicates that a precipitate was formed; H indicates that a hydrogel was formed; L/H indicates that a mixture of a hydrogel and a liquid was formed; P->H indicates that a precipitate formed initially which converted to a hydrogel overnight; conditions: molar ratio steroid drug:metal ion 1:1
Procedure: The molar ratio of the steroid drug to the alkaline earth metal ion was 1:1 for all of the above samples.
Preparation of hydrogel. […] To form the DexP-hydrogel containing bupivacaine chlorhydrate (BPV), a DexP aqueous solution (100 mM) was added to a mixture of bupivacaine (10 mg/mL; approx. 30.8 mM) and Ca^2+ (100 mM) in a volume ratio of 1:2:1.

sciatic nerve = experiment: Sciatic nerve blockade, sensory (modified hotplate test); assay type: in vivo, rats; conditions: 0.3 mL at the sciatic nerve; bupivacaine 5 mg/mL (15.4 mM); DexP 25 mM where present; mean+/−SD
Procedure: Sciatic nerve blockade. Under brief isoflurane-oxygen anesthesia, the animals were injected with 0.3 mL of test material using a 23 G needle, which was introduced postero-medial to the greater trochanter until contact with bone.
Sensory nerve block was assessed by a modified hotplate test, as reported previously. The plantar surface of the rat's hind paw was placed on a pre-heated hot plate at 56° C. The time (termed thermal latency) that the animal would leave its hindpaw on the hotplate was recorded. Longer latencies reflected deeper degrees of local anesthesia. Pristine animals have latencies of about 2 s. After 12 s, the hindpaw was removed from the hotplate by the investigator to avoid tissue thermal injury or the development of hyperalgesia. Measurements were repeated 3 times at each timepoint. The duration of block was calculated as the time required for thermal latency to return to a value of 7 s from a higher value; 7 s is the midpoint between a baseline thermal latency of 2 seconds in adult rats, and a maximal latency of 12 s.

[2] = tested on: sciatic nerve and surrounding tissues; experiment: Histology: myotoxicity and inflammation scores; assay type: in vivo, rats; conditions: for Inflammation (range 0-4) / Myotoxicity (range 0-6): median with 25th and 75th percentiles, bupivacaine 5.0 mg/mL
Excerpt: 4 or 14 days after injection (n=6 at each time point), the sciatic nerve and surrounding tissues were harvested and processed for histology by hematoxylin-eosin staining (FIG. 6, Table 2). Overall, tissue reaction to all formulations was relatively benign.
Histology. Rats were euthanized by carbon dioxide 4 days or 14 days after injection. The nerve and surrounding tissue were harvested and underwent standard procedures to produce hematoxylin and eosin-stained slides. The samples were scored for inflammation (0-4) and myotoxicity (0-6). The inflammation score was a subjective quantification of severity, where 0 was normal and 4 was severe inflammation. The myotoxicity score was determined by the nuclear internalization and regeneration of myocytes, two representative characteristics of local anesthetics myotoxicity. Nuclear internalization was characterized by myocytes having nuclei located away from its usual location at the periphery of the cell. Regeneration was characterized by the presence of shrunken myocytes with basophilic cytoplasm. The scoring scale was as follows: 0=normal; 1=per fascicular internalization; 2=deep internalization (>5 cell layers); 3=perifascicular regeneration; 4=deep tissue regeneration (>5 cell layers); 5=hemefascicular regeneration; 6=holofascicular regeneration.

C2C12 cells = experiment: Cell viability (MTS assay, Transwell); assay type: cell-based; conditions: 24 h exposure, hydrogels [DexP]=25 mM
Procedure: The cytotoxicity of DexP-hydrogels ([DexP]:[Ca^2+]=2:1, 1:1, or 2:3), and free DexP were assessed by exposing C2C12 cells to them for 24 h in a Transwell® system where the gels were separated from the cells by a permeable membrane (FIG. 12) and measuring cell viability by MTS (3-(4,5-dimethylthiazol-2-yl)-5-(3-carboxymethoxyphenyl)-2-(4-sulfophenyl)-2H-tetrazolium) assay. […] The concentration of free DexP in the cell culture media incubated with the DexP-hydrogel ([DexP]:[Ca^2+]=2:1) for 24 h was 2.5 mg/mL (calculated from the release profile in FIG. 3), and the reduction of cell viability in that group was similar to that from 2.5 mg/mL of free DexP (p=0.31, p<0.005 compared to untreated cells). 25 mM DexP-hydrogels with the ratio [DexP]:[Ca^2+]=1:1 were used in subsequent experiments.
Cell viability. In vitro cell viability in the presence of DexP hydrogels was investigated in C2C12 cells (American Type Culture Collection, Manassas, Va.). In brief, C2C12 cells were grown and maintained in DMEM with 20% FBS and 1% Penicillin Streptomycin (Invitrogen, Waltham, Mass.) at 37° C. in 5% CO2. Cells were seeded into the lower chamber of 24-well Transwell® plates (Costar 3470, pore size 0.4 micrometers, Corning Incorporated, Corning, N.Y.) at 50,000 cells/mL in DMEM with 2% horse serum and 1% penicillin streptomycin and incubated for 14 days to allow differentiation into myotubes. […]

Row | Compound | Gelation ([1]; Ba^2+ concentration 2.5) | Gelation ([1]; Ba^2+ concentration 6.25) | Gelation ([1]; Ba^2+ concentration 12.5) | Gelation ([1]; Ba^2+ concentration 25) | Gelation ([1]; Ca^2+ concentration 2.5) | Gelation ([1]; Ca^2+ concentration 6.25) | Gelation ([1]; Ca^2+ concentration 12.5) | Gelation ([1]; Ca^2+ concentration 25) | Duration of sensory blockade (sciatic nerve) [min] | Inflammation (range 0-4) ([2]; 4 days) | Myotoxicity (range 0-6) ([2]; 4 days) | Inflammation (range 0-4) ([2]; 14 days) | Myotoxicity (range 0-6) ([2]; 14 days) | Tissue reaction (histology, H&E) ([2]; day 4 after injection at the sciatic nerve, listed as free bupivacaine solution, hydrochloride) | Tissue reaction (histology, H&E) ([2]; day 14 after injection at the sciatic nerve) | Cell viability / cytotoxicity (C2C12 cells)
1 | C[C@H]1C[C@H]2[C@@H]3CCC4=CC(=O)C=C[C@]4(C)[C@@]3(F)[C@@H](O)C[C@]2(C)[C@@]1(O)C(=O)COP(=O)(O)O [Betamethasone phosphate, betamethasone phosphate disodium] | L | L | P−>H | P−>H | L/H | L/H | H | H |  |  |  |  |  |  |  | 
2 | CCCCN1CCCCC1C(=O)Nc1c(C)cccc1C (centres unmarked) [Bupivacaine solution, bupivacaine hydrochloride] |  |  |  |  |  |  |  |  | 126 ± 38 | 2.0 (1.0-2.5) | 3.0 (3.0-3.75) | 1.0 (0.5-1.0) | 1.0 (0.5-1.0) | inflammatory infiltrate consisting primarily of macrophages with lymphocytes and occasional neutrophils; also recorded: evidence of myotoxicity | diminished compared to reaction at day 4, almost back to normal | 
3 | C[C@@H]1C[C@H]2[C@@H]3CCC4=CC(=O)C=C[C@]4(C)[C@@]3(F)[C@@H](O)C[C@]2(C)[C@@]1(O)C(=O)COP(=O)(O)O [Dexamethasone phosphate, dexamethasone phosphate disodium] | L | L | P−>H | P−>H | L/H | L/H | H | H |  |  |  |  |  |  |  | concentration-dependent reduction of cell viability
4 | hydrocortisone phosphate disodium | L | L | P−>H | P−>H | L/H | L/H | H | H |  |  |  |  |  |  |  | 
